Test results reported in ChEMBL document CHEMBL6087404, “Naphthoindole-2-carboxamides as a lipophilic chemotype of hetarene-anthraquinones potent against P-gp resistant tumor cells” (Eur J Med Chem, 2025).
The source made the active and inactive calls. The calls are words filed in the database; no cut-off is given here.

What was measured:
[1] = Antiproliferative activity against hFB-hTERT6 cells incubated for 72 hrs by MTT assay; type: toxicity, cell-based; conditions: human
[2] = Drug uptake in P-gp+ human K562/4 cells at 2 uM incubated for 3 to 120 hrs by flow cytometry; type: ADME, cell-based; conditions: k562/4, 2 µM, time 3-120 hrs
[3] = Drug uptake in verapamil-treated human K562/4 cells at 2 uM incubated for 3 to 120 hrs by flow cytometry relative to wild-type culture; type: ADME, cell-based; conditions: k562/4, 2 µM, time 3-120 hrs
[4] = Drug uptake in verapamil-treated human K562i/S9 cells at 2 uM incubated for 3 to 120 hrs by flow cytometry relative to wild-type culture; type: ADME, cell-based; conditions: k562i/s9, 2 µM, time 3-120 hrs
[5] = Drug uptake in human K562i/S9 cells assessed as fold increase at 2 uM incubated for 3 to 120 hrs by flow cytometry relative to LCTA-2640; type: ADME, cell-based; conditions: k562i/s9, 2 µM, time 3-120 hrs
[6] = Drug uptake in P-gp+ human […] cells at 3 uM incubated for 10 mins by confocal microscopy; type: ADME, cell-based; conditions: k562/4, 10 min
[7] = Drug uptake in cytoplasmic membrane of human HCT-116 cells at 3 uM incubated for 1 hr by confocal microscopy; type: ADME, cell membranes, Cytoplasm membrane; conditions: hct-116, 1 h
[8] = Drug uptake in nuclear membrane of human HCT-116 cells at 3 uM incubated for 1 hr by confocal microscopy; type: ADME, cell membranes; conditions: hct-116, 1 h
[9] = Drug uptake in lysosome of human HCT-116 cells at 3 uM incubated for 1 hr by LysoTracker Deep Red dye based confocal microscopy; type: ADME, subcellular; conditions: hct-116, 1 h
[10] = Drug uptake in mitochondria of human HCT-116 cells at 3 uM incubated for 1 hr by MitoTracker Red FM dye based confocal microscopy; type: ADME; conditions: hct-116, 1 h
K562 [11] = assay: Induction of apoptosis in human K562 cells assessed as viable cells at 1 uM incubated for 24 hrs by Annexin V-FITC/PI staining based flow cytometry (reference value: 85.9 %); type: functional; conditions: read-out: Activity
K562 [12] = assay: Induction of apoptosis in human K562 cells assessed as early apoptotic cells at 1 uM incubated for 24 hrs by Annexin V-FITC/PI staining based flow cytometry (reference value: 0.8 %); type: functional
K562 [13] = assay: Induction of apoptosis in human K562 cells assessed as late apoptotic cells at 1 uM incubated for 24 hrs by Annexin V-FITC/PI staining based flow cytometry (reference value: 2.5 %); type: functional
K562/4 [14] = assay: Induction of apoptosis in human K562/4 cells assessed as viable cells at 1 uM incubated for 24 hrs by Annexin V-FITC/PI staining based flow cytometry (reference value: 86 %); type: functional; conditions: read-out: Activity
K562/4 [15] = assay: Induction of apoptosis in human K562/4 cells assessed as early apoptotic cells at 1 uM incubated for 24 hrs by Annexin V-FITC/PI staining based flow cytometry (reference value: 1 %); type: functional
K562/4 [16] = assay: Induction of apoptosis in human K562/4 cells assessed as late apoptotic cells at 1 uM incubated for 24 hrs by Annexin V-FITC/PI staining based flow cytometry (reference value: 2.5 %); type: functional
K562/4 [17] = assay: Induction of apoptosis in human K562/4 cells assessed as viable cells at 1 uM incubated for 24 hrs by Annexin V-FITC/PI staining based flow cytometry (reference value: 10.8 %); type: functional; conditions: read-out: Activity
K562 [18] = assay: Induction of apoptosis in human K562 cells assessed as early apoptotic cells at 1 uM incubated for 48 hrs by Annexin V-FITC/PI staining based flow cytometry (reference value: 0.8 %); type: functional
K562 [19] = assay: Induction of apoptosis in human K562 cells assessed as late apoptotic cells at 1 uM incubated for 48 hrs by Annexin V-FITC/PI staining based flow cytometry (reference value: 2.5 %); type: functional
K562 [20] = assay: Induction of apoptosis in human K562 cells assessed as necrotic cells at 1 uM incubated for 48 hrs by Annexin V-FITC/PI staining based flow cytometry (reference value: 10.8 %); type: functional
K562/4 [21] = assay: Induction of apoptosis in human K562/4 cells assessed as viable cells at 1 uM incubated for 48 hrs by Annexin V-FITC/PI staining based flow cytometry (reference value: 86 %); type: functional; conditions: read-out: Activity
K562/4 [22] = assay: Induction of apoptosis in human K562/4 cells assessed as early apoptotic cells at 1 uM incubated for 48 hrs by Annexin V-FITC/PI staining based flow cytometry (reference value: 1 %); type: functional
K562 [23] = assay: Effect on cell cycle distribution in human K562 cells assessed as cells with fragmented DNA at sub-G1 phase at 0.75 uM incubated for 24 hrs by PI staining based flow cytometry (reference value: 3 %); type: functional
K562 [24] = assay: Effect on cell cycle distribution in human K562 cells assessed as cells with fragmented DNA at sub-G1 phase at 0.75 uM incubated for 48 hrs by PI staining based flow cytometry (reference value: 3 %); type: functional
K562 [25] = assay: Effect on cell cycle distribution in human K562 cells assessed as cells with fragmented DNA at sub-G1 phase at 1 uM incubated for 24 hrs by PI staining based flow cytometry (reference value: 3 %); type: functional
K562 [26] = assay: Effect on cell cycle distribution in human K562 cells assessed as cells with fragmented DNA at sub-G1 phase at 1 uM incubated for 48 hrs by PI staining based flow cytometry (reference value: 3 %); type: functional
K562/4 [27] = assay: Effect on cell cycle distribution in human K562/4 cells assessed as cells with fragmented DNA at sub-G1 phase at 0.75 uM incubated for 24 hrs by PI staining based flow cytometry (reference value: 4 %); type: functional
K562/4 [28] = assay: Effect on cell cycle distribution in human K562/4 cells assessed as cells with fragmented DNA at sub-G1 phase at 0.75 uM incubated for 48 hrs by PI staining based flow cytometry (reference value: 4 %); type: functional
K562/4 [29] = assay: Effect on cell cycle distribution in human K562/4 cells assessed as cells with fragmented DNA at sub-G1 phase at 0.75 uM incubated for 72 hrs by PI staining based flow cytometry (reference value: 4 %); type: functional
K562/4 [30] = assay: Effect on cell cycle distribution in human K562/4 cells assessed as cells with fragmented DNA at sub-G1 phase at 1 uM incubated for 24 hrs by PI staining based flow cytometry (reference value: 4 %); type: functional
K562/4 [31] = assay: Effect on cell cycle distribution in human K562/4 cells assessed as cells with fragmented DNA at sub-G1 phase at 1 uM incubated for 48 hrs by PI staining based flow cytometry (reference value: 4 %); type: functional
K562/4 [32] = assay: Effect on cell cycle distribution in human K562/4 cells assessed as cells with fragmented DNA at sub-G1 phase at 1 uM incubated for 72 hrs by PI staining based flow cytometry (reference value: 4 %); type: functional
DNA = assay: Binding affinity to pBR322 plasmid DNA (unknown origin) assessed as effect on electrophoretic mobility of DNA at 1 to 40 uM incubated for 30 mins; type: nucleic-acid assay; conditions: Escherichia coli, dose 1-40 µM

CS(=O)(=O)O.N[C@H]1CCN(C(=O)c2cc3c(O)c4c(c(O)c3[nH]2)C(=O)c2ccccc2C4=O)C1
IC50 at 72 h [1]: 4.2 µM | Drug uptake [2]: Active | Drug uptake [3]: 80% | Drug uptake [4]: 50% | fold change (FC) [5]: <= 2 | Drug uptake [6]: Active | Drug uptake [7]: Not_active | Drug uptake [8]: Not_active | Drug uptake [9]: Active | Drug uptake [10]: Active | viability at 1 µM (K562 [11]): 29% | Activity (K562 [12]): 0.2% | Activity (K562 [13]): 24.5% | viability at 1 µM (K562/4 [14]): 30.1% | Activity (K562/4 [15]): 0.6% | Activity (K562/4 [16]): 20.4% | viability at 1 µM (K562/4 [17]): 48.9% | Activity (K562 [18]): 0.5% | Activity (K562 [19]): 43.8% | Activity (K562 [20]): 43.7% | viability at 1 µM (K562/4 [21]): 3.4% | Activity (K562/4 [22]): 0.1% | Activity (K562 [23]): 21% | Activity (K562 [24]): 26% | Activity (K562 [25]): 42% | Activity (K562 [26]): 84% | Activity (K562/4 [27]): 8% | Activity (K562/4 [28]): 6% | Activity (K562/4 [29]): 5% | Activity (K562/4 [30]): 30% | Activity (K562/4 [31]): 54% | Activity (K562/4 [32]): 89% | Activity (DNA): inactive
